{"source": "patent US20250034139A1", "about": "“AMINE COMPOUNDS HAVING ANTI-INFLAMMATORY, ANTIFUNGAL, ANTIPARASITIC, AND ANTICANCER ACTIVITY” (PHARMA CINQ, LLC, priority 2013, published 2025)", "key": {"[1]": {"tested_on": "4T1 mouse mammary breast cancer cells", "assay": "Example O: syngeneic 4T1 breast cancer growth in Balb/C mice", "type": "in vivo", "details": "4T1 in female Balb/C mice; for Final Tumor Volume: 120 μmol/kg/day oral gavage, day 2 to day 30; for Δ BW % / Final Body Weight / Initial Body Weight: 120 μmol/kg/day oral; for Δ BW %: final vs initial body weight; for Final Body Weight: in g (unit assumed); for Initial Body Weight: initial (baseline)", "outline": "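Syngeneic 4T1 tumors in immunocompetent Balb/C mice; compounds dosed orally by gavage in 1% HPMC, 120 μmol/kg/day, from day 2 to day 30. Tumor growth by caliper twice weekly plus tumor weight at necropsy; body weight monitored.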"}, "[2]": {"tested_on": "HCT-116 colon adenocarcinoma cells", "assay": "Example Q: HCT-116 liver metastases of human colorectal cancer in nude mice", "type": "in vivo", "details": "240 μmol/kg/day oral, 28 days", "from_the_text": "A major cause of morbidity and mortality in patients with colorectal cancer is metastasis of the tumor into the liver; colorectal cancer can often be successfully resected from the primary site, but metastases to the liver are much less accessible to surgical treatment. A mouse model of colorectal cancer metastasis to the liver has been established, using HCT-116 colon adenocarcinoma cells injected into the spleen of athymic (nude) mice. The HCT-116 cancer cells spontaneously spread from the spleen into the liver via the circulation, and they form tumors in the liver (Ishizu, K., Sunose, N., Yamazaki, K., Tsuruo, T., Sadahiro, S., Makuuchi, H., and Yamori, T. Development and Characterization of a Model of Liver Metastasis Using Human Colon Cancer HCT-116. Biol. Pharm. Bull. 2007, 30(9):1779-1783).\nMice (female Hsd:athymic nude-Foxn1^nu) were anesthetized with xylazine/ketamine intraperitoneal injection, followed by incision approximately 10 mm on the left subcostal region (area disinfected with ethanol) to expose the peritoneum. The peritoneum was opened for about 8 mm near the spleen, and 2.5×10^6 cells in 50 μL PBS were injected into the spleen using a 30G needle. The spleen was repositioned, and the surgical area was closed using sutures and clips.\nThe day after receiving cells, mice were randomized into groups of five based upon body weight to provide groups with approximately equivalent mean body weight. Mice received a single, daily oral dose of test article or vehicle (1% hydroxypropylmethylcellulose) beginning 48 hours following cell injection into the spleen.\nAt study termination 28 days after HCT-116 cell injection, body weights were recorded, and spleens and livers were removed, weighed and fixed in 10% formalin. Livers were sectioned and stained; the relative areas of normal and tumor tissue were quantified in histology sections with quantitative planimetry software."}, "[3]": {"tested_on": "TPA induced chronic skin inflammation", "assay": "Example E: TPA induced chronic skin inflammation mouse model, ear thickness", "type": "in vivo", "from_the_text": "Objective: To evaluate the anti-inflammatory properties of compounds of the invention in a 12-O-tetradecanoylphorbol-13-acetate (TPA) induced chronic skin inflammation mouse model.\nTopically applied phorbol esters such as TPA induce skin inflammation involving edema, macrophage and T cell infiltration and epidermal hyperplasia (Alford et al., 1992), and this system has been used as an animal model for dermatitis, mimicking aspects of human inflammatory skin disorders. TPA is also known as a tumor promoter, so that agents which inhibit hyperproliferative or angiogenic actions of TPA may inhibit tumor promotion.\nDrug formulations: Compound AC was dissolved in isopropyl myristate:propylene glycol (1:1)+0.9% DMSO at the indicated concentrations. TPA was dissolved in acetone:water (99:1). Dexamethasone (0.06%) was dissolved in normal saline.\nMice: HSD-ICR(CD-1R) female mice at 8-10 weeks of age were used in this experiment.\nExperimental Design: Mice were placed into six groups of 10 mice each. 20 μL of 0.01% TPA was administered to each ear on days 0, 2, 4, 7, 9, 11, 13, 15, 18, 20, and 22. 20 μL of AC at various concentrations or 20 μL of dexamethasone solution was applied to the ears daily beginning on day 7, after inflammatory changes in ear thickness were established. Ear thickness was measured with calipers every three days."}, "[4]": {"tested_on": "Vit-D3 activated THP-1 cells", "assay": "Example B: JC-1 mitochondrial loading (mitochondrial membrane potential)", "type": "cell-based, Human", "details": "5 hours", "protocol": "(§1) In this experiment, cell viability was monitored and uptake and accumulation of acridine orange, a lysosomotropic fluorescent dye, was used to assess lysosomal acidification and integrity. JC-1 dye was used to measure effects of test compounds on mitochondrial membrane potential (MMP); reduction of MMP is a feature of apoptotic cell death.\n• 1. Vit-D3 activated THP-1 cells (0.5×10^6 cells in 2 ml) were transferred to the wells of a 24-well dish • 2. […] […] LPS from E. coli 0111:B4 (1 ng/ml final concentration) was added to some wells • 5. After 5 hours viable cell count, Acridine Orange (A.O.) uptake and JC-1 mitochondrial loading were determined by fluorescence-activated cell sorting (FACS)\nTHP-1 cells (p39) treated with 0.1 μM vit-D3 (100 μM) in DMSO] for 3 days were counted, spun down, resuspended in serum-free RPMI (Lonza 12-115F) and transferred to the wells of two 24-well dishes (0.5×10^6 cells in 2 ml). […] Crude-LPS from E. coli 0111:B4 was added to some wells (1 ng/ml final conc) and the plates placed in a 37 C incubator. 1 μl of Baf A1 (50 nM final conc) was added to one well (no LPS) at T=4 hours to serve as a compensation control for Acridine Orange loading. After 5 hours, 500 μl aliquots of cells were transferred to FACS tubes and viable cell counts, A.O. loading and JC-1 accumulation determined by FACS."}, "[5]": {"tested_on": "Vit-D3 activated THP-1 cells", "assay": "Example B: Acridine Orange (A.O.) uptake, lysosomal acidification and integrity", "type": "cell-based, Human", "details": "5 hours", "protocol": "as §1, with “death. • 1. […] The tubes were washed twice in DPBS, resuspended in 500 μl DPBS and acquired on the FACSCalibur.” for “death.”"}, "[6]": {"tested_on": "EAE induced by PLP139-151", "assay": "Example G: Experimental Autoimmune Encephalitis (EAE) mouse model of multiple sclerosis", "type": "in vivo"}, "[7]": {"details": "HCT-116 liver metastases, nude mice"}}, "note": "Marks after values point to notes of the source that are not given here.", "data": [{"compound": "CCCCCCOc1ccc(CNc2ccnc3ccccc23)cc1", "note": "[AA, N-[4-(Hexyloxy)benzyl]quinolin-4-amine]", "values": [{"measurement": "Final Tumor Volume", "setting": "[1]", "result": "563 ± 175", "unit": "mm^3"}, {"measurement": "Δ BW %", "setting": "[1]", "result": "−5.1", "unit": "%"}, {"measurement": "Final Body Weight", "setting": "[1]", "result": "20.3 ± 1.3"}, {"measurement": "Initial Body Weight", "setting": "[1]", "result": "21.4 ± 1.0", "unit": "g"}, {"measurement": "Final Body Weight Grams", "setting": "[2]; [7]", "result": "28.2 ± 1.5", "unit": "NS Grams"}, {"measurement": "Liver Weight % of Body Weight", "setting": "[2]; [7]", "result": "5.3 ± 0.2", "unit": "%"}, {"measurement": "Tumor Area % of Vehicle Group", "setting": "[2]; [7]", "result": 1.5, "unit": "% *"}, {"measurement": "Tumor Area % of Total Liver", "setting": "[2]; HCT-116 liver metastases, nude mice, histology planimetry", "result": "0.2 ± 0.26", "unit": "%"}]}, {"compound": "CCCCCCOc1cccc(CNc2ccnc3ccccc23)c1", "note": "[Compound AC, N-[3-(Hexyloxy)benzyl]quinolin-4-amine]", "values": [{"measurement": "Ear thickness (mm)", "setting": "[3]; day 22, 0.0125 mg/ear daily topical from day 7, TPA-treated mice", "result": "0.362 ± 0.0394", "unit": "mm"}, {"measurement": "Ear thickness (mm)", "setting": "[3]; day 22, 0.025 mg/ear daily topical from day 7, TPA-treated mice", "result": "0.390 ± 0.0319", "unit": "mm"}, {"measurement": "Ear thickness (mm)", "setting": "[3]; day 22, 0.05 mg/ear daily topical from day 7, TPA-treated mice", "result": "0.391 ± 0.0334", "unit": "mm"}, {"measurement": "Ear thickness (mm)", "setting": "[3]; day 22, 0.075 mg/ear daily topical from day 7, TPA-treated mice", "result": "0.395 ± 0.0438", "unit": "mm"}, {"measurement": "Histology of TPA-treated ears, in words", "setting": "[3]; topical AC", "result": "both TPA-induced edema and epidermal hyperplasia were reduced by AC, as was angiogenesis"}, {"measurement": "Final Tumor Volume", "setting": "[1]", "result": "723 ± 185", "unit": "mm^3"}, {"measurement": "Δ BW %", "setting": "[1]", "result": "−8.4", "unit": "%"}, {"measurement": "Final Body Weight", "setting": "[1]", "result": "19.7 ± 1.1"}, {"measurement": "Initial Body Weight", "setting": "[1]", "result": "21.5 ± 1.0", "unit": "g"}, {"measurement": "JC-1 Red cells (functional mitochondria) percent change from DMSO (no LPS), Mean ± SE", "setting": "[4]; 0.1 μM AC, 1 ng/ml LPS", "result": "−1.66 ± 0.96", "unit": "%"}, {"measurement": "JC-1 Red cells (functional mitochondria) percent change from DMSO (no LPS), Mean ± SE", "setting": "[4]; 0.1 μM AC, No LPS", "result": "1.18 ± 0.91", "unit": "%"}, {"measurement": "JC-1 Red cells (functional mitochondria) percent change from DMSO (no LPS), Mean ± SE", "setting": "[4]; 0.5 μM AC, 1 ng/ml LPS", "result": "−7.19 ± 1.52", "unit": "%"}, {"measurement": "JC-1 Red cells (functional mitochondria) percent change from DMSO (no LPS), Mean ± SE", "setting": "[4]; 0.5 μM AC, No LPS", "result": "−4.39 ± 1.40", "unit": "%"}, {"measurement": "JC-1 Red cells (functional mitochondria) percent change from DMSO (no LPS), Mean ± SE", "setting": "[4]; 1.0 μM AC, 1 ng/ml LPS", "result": "−16.41 ± 2.60", "unit": "%"}, {"measurement": "JC-1 Red cells (functional mitochondria) percent change from DMSO (no LPS), Mean ± SE", "setting": "[4]; 1.0 μM AC, No LPS", "result": "−10.40 ± 2.08", "unit": "%"}, {"measurement": "A.O. FL-3 fluorescence (MFI) percent change from DMSO no LPS, Mean ± SE", "setting": "[5]; 0.1 μM AC, 1 ng/ml LPS", "result": "−54.72 ± 2.74", "unit": "%"}, {"measurement": "A.O. FL-3 fluorescence (MFI) percent change from DMSO no LPS, Mean ± SE", "setting": "[5]; 0.1 μM AC, No LPS", "result": "−27.64 ± 9.68", "unit": "%"}, {"measurement": "A.O. FL-3 fluorescence (MFI) percent change from DMSO no LPS, Mean ± SE", "setting": "[5]; 0.5 μM AC, 1 ng/ml LPS", "result": "−68.24 ± 2.39", "unit": "%"}, {"measurement": "A.O. FL-3 fluorescence (MFI) percent change from DMSO no LPS, Mean ± SE", "setting": "[5]; 0.5 μM AC, No LPS", "result": "−54.59 ± 4.05", "unit": "%"}, {"measurement": "A.O. FL-3 fluorescence (MFI) percent change from DMSO no LPS, Mean ± SE", "setting": "[5]; 1.0 μM AC, 1 ng/ml LPS", "result": "−81.11 ± 2.65", "unit": "%"}, {"measurement": "A.O. FL-3 fluorescence (MFI) percent change from DMSO no LPS, Mean ± SE", "setting": "[5]; 1.0 μM AC, No LPS", "result": "−69.52 ± 2.05", "unit": "%"}, {"measurement": "excess of the Vehicle group's liver weight/body weight ratio over the treated group", "setting": "[2]", "result": 12, "unit": "%"}, {"measurement": "area of liver invaded by metastatic cancer cells, in words", "setting": "[2]; histology planimetry", "result": "markedly reduced the area of liver invaded by metastatic cancer cells"}]}, {"compound": "CCCCCCOc1cccc(OCCCNc2ccnc3ccccc23)c1", "note": "[AZ, N-{3-[3-(Hexyloxy)phenoxy]propyl}quinolin-4-amine]", "values": [{"measurement": "EAE Score on Day 46", "setting": "[6]; 60 μmol/kg by oral gavage from Day 14, score 0-5", "result": "2.50 ± 0.29"}, {"measurement": "EAE Score on Day 14 (Before Treatment)", "setting": "[6]; baseline, score 0-5", "result": "0.83 ± 0.41"}]}]}
